Source: ChEMBL document CHEMBL1201862, “PubChem BioAssay data set” (2004)
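In this assay, cells in 96-well plates receive the compound at five concentrations for 48 hours. Endpoints are linearly interpolated between the surrounding concentrations. GI50: concentration for 50% inhibition of growth.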 Active and inactive are the calls of the source. Cut-off read from the data, not from the text of the source: active = GI50 up to about 1.1 µM and inactive = higher.

Tests used:
Assay in all cases: NCI-60 cell line screen, 48 h
CAKI-1 = tested on: CAKI-1
HCT-116 = tested on: HCT-116
HOP-92 = tested on: HOP-92
M14 = tested on: M14
Malme-3M = tested on: Malme-3M
NCI-H226 = tested on: NCI-H226
NCI-H460 = tested on: NCI-H460
NCI-H522 = tested on: NCI-H522
OVCAR-4 = tested on: OVCAR-4
SF-295 = tested on: SF-295
SF-539 = tested on: SF-539
SK-MEL-2 = tested on: SK-MEL-2
SNB-19 = tested on: SNB-19
U-251 = tested on: U-251
UO-31 = tested on: UO-31
ACHN = tested on: ACHN
HCT-15 = tested on: HCT-15
RPMI-8226 = tested on: RPMI-8226
RXF 393 = tested on: RXF 393

Row | Compound | GI50 (CAKI-1) | GI50 (HCT-116) | GI50 (HOP-92) | GI50 (M14) | GI50 (Malme-3M) | GI50 (NCI-H226) | GI50 (NCI-H460) | GI50 (NCI-H522) | GI50 (OVCAR-4) | GI50 (SF-295) | GI50 (SF-539) | GI50 (SK-MEL-2) | GI50 (SNB-19) | GI50 (U-251) | GI50 (UO-31) | GI50 (ACHN) | GI50 (HCT-15) [µM] | GI50 (RPMI-8226) | GI50 (RXF 393)
1 | CN(/C(=N\O)c1ccccc1)c1ccccc1 | 37.2 µM (inactive) | 46.7 µM (inactive) | 5.12 µM (inactive) | 21.6 µM (inactive) | 39.1 µM (inactive) | 21.3 µM (inactive) | 32.5 µM (inactive) | 18 µM (inactive) | 33.7 µM (inactive) | 21 µM (inactive) | 22.6 µM (inactive) | 27.8 µM (inactive) | 27.9 µM (inactive) | 17.2 µM (inactive) | 25.5 µM (inactive) |  |  |  | 
2 | CC(CC(=O)Nc1ccc(NC(=O)CC(C)/N=N\C(N)=O)cc1)/N=N\C(N)=O (centres undefined) | > 100 µM (inactive) | > 100 µM (inactive) | > 100 µM (inactive) | > 100 µM (inactive) | > 100 µM (inactive) | > 100 µM (inactive) | 50.9 µM (inactive) | > 100 µM (inactive) | > 100 µM (inactive) | > 100 µM (inactive) | > 100 µM (inactive) | > 100 µM (inactive) | > 100 µM (inactive) | > 100 µM (inactive) | > 100 µM (inactive) | > 100 µM (inactive) | 16.4 | > 100 µM (inactive) | > 100 µM (inactive)
3 | O=C1CCCC/C1=C1\C(=O)Nc2cc(F)ccc21 | > 100 µM (inactive) | > 100 µM (inactive) | > 100 µM (inactive) | > 100 µM (inactive) | > 100 µM (inactive) | > 100 µM (inactive) | > 100 µM (inactive) | > 100 µM (inactive) | > 100 µM (inactive) | > 100 µM (inactive) | > 100 µM (inactive) | > 100 µM (inactive) | > 100 µM (inactive) | > 100 µM (inactive) | > 100 µM (inactive) | > 100 µM (inactive) | > 100 | > 100 µM (inactive) | > 100 µM (inactive)
4 | C=C(C(=C)N1N=NC2C3CCC(C3)C21)N1N=NC2C3CCC(C3)C21 (centres undefined) | > 100 µM (inactive) | > 100 µM (inactive) | > 100 µM (inactive) | > 100 µM (inactive) | > 100 µM (inactive) |  | > 100 µM (inactive) | 66.5 µM (inactive) | > 100 µM (inactive) | > 100 µM (inactive) | > 100 µM (inactive) |  | > 100 µM (inactive) | > 100 µM (inactive) | > 100 µM (inactive) | > 100 µM (inactive) |  |  | > 100 µM (inactive)
5 | CCOC(=O)c1cn2c([nH]c3ccccc32)c(C#N)c1=O | > 100 µM (inactive) | 80.4 µM (inactive) | > 100 µM (inactive) | > 100 µM (inactive) | > 100 µM (inactive) | > 100 µM (inactive) | 47 µM (inactive) | > 100 µM (inactive) | > 100 µM (inactive) | > 100 µM (inactive) | > 100 µM (inactive) | > 100 µM (inactive) | > 100 µM (inactive) | > 100 µM (inactive) | 98.2 µM (inactive) | > 100 µM (inactive) | > 100 |  | > 100 µM (inactive)
6 | O=C1c2cccc(O)c2C(=O)c2c(O)cccc21 [DANTHRON] | 33.7 µM (inactive) | 49 µM (inactive) | > 100 µM (inactive) | 97.7 µM (inactive) |  | > 100 µM (inactive) | 30.3 µM (inactive) | 62.7 µM (inactive) | 26.3 µM (inactive) | 55.6 µM (inactive) | 53.6 µM (inactive) | > 100 µM (inactive) | > 100 µM (inactive) | 69.3 µM (inactive) | > 100 µM (inactive) | > 100 µM (inactive) | 74.8 | 50.7 µM (inactive) | 92.5 µM (inactive)
7 | Fc1ccc2c(c1)SC1Oc3ccccc3-c3c1c-2nn3-c1ccccc1 (centres undefined) |  | 66.8 µM (inactive) | > 100 µM (inactive) |  | > 100 µM (inactive) |  | > 100 µM (inactive) | 37.9 µM (inactive) |  | > 100 µM (inactive) | > 100 µM (inactive) | > 100 µM (inactive) |  | > 100 µM (inactive) | > 100 µM (inactive) | > 100 µM (inactive) |  | > 100 µM (inactive) | 46.9 µM (inactive)
8 | COc1ccc(CN2CC(C)(C)C2=O)c(OC)c1 |  | > 100 µM (inactive) | > 100 µM (inactive) | > 100 µM (inactive) | > 100 µM (inactive) | > 100 µM (inactive) | > 100 µM (inactive) | > 100 µM (inactive) | > 100 µM (inactive) | > 100 µM (inactive) | > 100 µM (inactive) | > 100 µM (inactive) | > 100 µM (inactive) | > 100 µM (inactive) | > 100 µM (inactive) | > 100 µM (inactive) | > 100 | > 100 µM (inactive) | > 100 µM (inactive)
9 | C/C(CC(=O)Nc1ccc(C)c(C)c1)=N\NC(N)=S |  | > 100 µM (inactive) | > 100 µM (inactive) | > 100 µM (inactive) | > 100 µM (inactive) | > 100 µM (inactive) | > 100 µM (inactive) | > 100 µM (inactive) |  | > 100 µM (inactive) | > 100 µM (inactive) | > 100 µM (inactive) |  | > 100 µM (inactive) | > 100 µM (inactive) | > 100 µM (inactive) |  | > 100 µM (inactive) | > 100 µM (inactive)
10 | CC1CCC(C(C)C)C(OC(=O)NCn2cc(-c3ccccc3)nn2)C1 (centres undefined) | > 100 µM (inactive) | > 100 µM (inactive) | > 100 µM (inactive) | > 100 µM (inactive) | > 100 µM (inactive) | 75.2 µM (inactive) | > 100 µM (inactive) | > 100 µM (inactive) | 57.8 µM (inactive) | > 100 µM (inactive) | 48.3 µM (inactive) | > 100 µM (inactive) | 33.9 µM (inactive) | > 100 µM (inactive) |  | > 100 µM (inactive) | > 100 | > 100 µM (inactive) | 
11 | COC1CC(n2cnc3c(N)ncnc32)OC1CO (centres undefined) | > 100 µM (inactive) | > 100 µM (inactive) | > 100 µM (inactive) | > 100 µM (inactive) | > 100 µM (inactive) | > 100 µM (inactive) | > 100 µM (inactive) | > 100 µM (inactive) | > 100 µM (inactive) | > 100 µM (inactive) | > 100 µM (inactive) | > 100 µM (inactive) | > 100 µM (inactive) | > 100 µM (inactive) | > 100 µM (inactive) | > 100 µM (inactive) | > 100 | > 100 µM (inactive) | 
12 | Clc1ccccc1C1=NN(c2ccccc2)C2c3cc(Br)ccc3OCC12 (centres undefined) |  | > 100 µM (inactive) | > 100 µM (inactive) |  | > 100 µM (inactive) |  | > 100 µM (inactive) | > 100 µM (inactive) |  | > 100 µM (inactive) | > 100 µM (inactive) | > 100 µM (inactive) | > 100 µM (inactive) | > 100 µM (inactive) | > 100 µM (inactive) | > 100 µM (inactive) |  | 67.9 µM (inactive) | > 100 µM (inactive)
